According to article PMC2865582 (Journal of medicinal chemistry, 2010):

How the values were obtained:
GV sPLA2 = target: T1, GV sPLA2 (Homo sapiens, UniProt P39877); experiment: Mixed micelle-based; assay type: biochemical; settings: lower bound from % inhibition at 0.091 mole fraction
T1 sequence (P39877 21-138): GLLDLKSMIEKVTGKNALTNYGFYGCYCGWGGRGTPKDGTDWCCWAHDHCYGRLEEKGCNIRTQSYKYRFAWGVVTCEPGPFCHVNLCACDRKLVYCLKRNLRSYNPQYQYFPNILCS

GIVA cPLA2 = target: T2, GIVA cPLA2 (Homo sapiens, UniProt P47712); experiment: Mixed micelle-based; assay type: biochemical; settings: for times more potent for GVIA iPLA2 than for GIVA cPLA2: ratio of XI(50) values; for inhibition at 0.091 mole fraction: read-out: GIVA cPLA2 % Inhibition
T2 sequence (P47712 1-749): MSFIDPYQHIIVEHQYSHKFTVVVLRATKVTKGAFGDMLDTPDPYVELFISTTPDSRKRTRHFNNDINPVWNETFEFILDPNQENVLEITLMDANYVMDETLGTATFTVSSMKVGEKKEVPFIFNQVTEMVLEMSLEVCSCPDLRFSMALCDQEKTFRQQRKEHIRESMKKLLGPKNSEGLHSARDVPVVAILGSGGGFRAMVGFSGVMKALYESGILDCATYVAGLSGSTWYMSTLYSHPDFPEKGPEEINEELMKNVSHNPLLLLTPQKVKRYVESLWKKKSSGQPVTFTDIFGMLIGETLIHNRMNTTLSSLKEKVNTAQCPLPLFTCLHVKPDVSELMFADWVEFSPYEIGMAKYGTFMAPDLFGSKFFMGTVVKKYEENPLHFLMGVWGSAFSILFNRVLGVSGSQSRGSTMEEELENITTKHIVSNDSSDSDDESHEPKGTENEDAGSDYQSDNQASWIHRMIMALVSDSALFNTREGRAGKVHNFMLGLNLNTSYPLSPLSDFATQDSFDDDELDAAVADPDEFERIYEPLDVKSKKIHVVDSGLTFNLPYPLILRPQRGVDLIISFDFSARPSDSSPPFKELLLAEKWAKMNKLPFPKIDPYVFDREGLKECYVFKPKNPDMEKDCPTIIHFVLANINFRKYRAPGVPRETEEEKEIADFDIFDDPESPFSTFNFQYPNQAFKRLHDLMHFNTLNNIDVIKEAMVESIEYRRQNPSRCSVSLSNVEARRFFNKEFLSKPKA

human GVIA iPLA2 = target: T3, human GVIA iPLA2 (Homo sapiens, UniProt O60733); settings: previous mixed micelle assay with DPPC substrate; cited from earlier work
T3 sequence (O60733 1-806): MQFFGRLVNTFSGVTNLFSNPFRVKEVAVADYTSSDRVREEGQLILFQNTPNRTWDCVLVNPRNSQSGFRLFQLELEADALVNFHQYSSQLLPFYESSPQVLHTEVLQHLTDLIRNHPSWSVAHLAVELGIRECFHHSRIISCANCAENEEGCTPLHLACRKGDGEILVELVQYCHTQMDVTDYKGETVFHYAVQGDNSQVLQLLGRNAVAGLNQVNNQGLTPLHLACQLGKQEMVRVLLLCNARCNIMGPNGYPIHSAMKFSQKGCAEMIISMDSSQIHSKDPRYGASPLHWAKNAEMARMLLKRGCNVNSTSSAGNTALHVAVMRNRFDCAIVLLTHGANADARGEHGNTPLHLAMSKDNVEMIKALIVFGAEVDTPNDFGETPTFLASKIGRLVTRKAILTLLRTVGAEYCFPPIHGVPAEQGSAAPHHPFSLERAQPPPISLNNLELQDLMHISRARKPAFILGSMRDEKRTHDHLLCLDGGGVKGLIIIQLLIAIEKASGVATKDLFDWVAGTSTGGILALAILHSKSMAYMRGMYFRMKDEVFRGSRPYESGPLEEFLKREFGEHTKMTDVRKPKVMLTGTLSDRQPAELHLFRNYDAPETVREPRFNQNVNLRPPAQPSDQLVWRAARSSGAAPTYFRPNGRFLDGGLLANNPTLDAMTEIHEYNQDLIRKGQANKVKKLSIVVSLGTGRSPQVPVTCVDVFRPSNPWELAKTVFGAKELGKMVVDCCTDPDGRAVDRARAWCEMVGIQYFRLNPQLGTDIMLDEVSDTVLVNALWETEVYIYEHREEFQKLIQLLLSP

[1] = system: experimental autoimmune encephalomyelitis; settings: animal model of multiple sclerosis; cited from earlier work

Compound | times more potent for GVIA iPLA2 than for GV sPLA2 (GV sPLA2) | times more potent for GVIA iPLA2 than for GIVA cPLA2 (GIVA cPLA2) | inhibition at 0.091 mole fraction (GIVA cPLA2) [%] | other results
O=C(CCCCc1ccc2ccccc2c1)C(F)(F)C(F)(F)C(F)(F)F [12i, 1,1,1,2,2,3,3-Heptafluoro-8-(naphthalen-2-yl)octan-4-one] | at least 90 times | at least 90 times | – | –
O=C(CCCCCc1ccccc1)C(F)(F)C(F)(F)C(F)(F)F [6b, 1,1,1,2,2,3,3-Heptafluoro-9-phenylnonan-4-one] | – | – | < 25 | –
O=C(CCCCc1ccc2ccccc2c1)C(F)(F)F [12g, 1,1,1-Trifluoro-6-(naphthalen-2-yl)hexan-2-one] | > 455 times | – | – | GIVA cPLA2 XI(50) (GIVA cPLA2; mole fraction of inhibitor in total substrate interface giving 50% inhibition): 0.039 ± 0.001 mole fraction
1,1,1,2,2,3,3,5-octafluoro-7-phenyloctan-4-one [compound 25] | > 180 times | 76 times | – | –
O=C(CCCCc1ccccc1)C(F)(F)C(F)(F)F [compound 2, 1,1,1,2,2-pentafluoro-7-phenylheptan-3-one] | – | – | < 25 | GVIA iPLA2 XI(50) determined previously (human GVIA iPLA2): 0.0073 mole fraction; therapeutic effect in experimental autoimmune encephalomyelitis [1]: beneficial therapeutic effect
